The text below walks through data of patent US9764031B2 (priority 2010, dated 2017).

The subject of the test is IL-12. Details: species or system mice. Particulars: mouse, in vivo.

For `CCOCc1nc2c(N)nc3ccccc3c2n1CC(C)(C)O` [R848, Resiquimod], the “peak level of systemic IL-12, free agonist higher than NC-coupled agonist” value came out at 30 fold.
